Assay results from patent US6514978B2, “Thromboresistant materials incorporating pyrazinone protease inhibitors” (3-Dimensional Pharmaceuticals, Inc., priority 1998, dated 2003).
Counter-ions that a name gives are not always drawn.

What follows are compounds tested against T1, human α-thrombin (Homo sapiens, UniProt P00734) (assay: In vitro inhibition of purified enzymes: Ki determination, thrombin (hydrolysis of N-succinyl-Ala-Ala-Pro-Arg-p-nitroanilide)). Conditions: purified human α-thrombin 0.5 nM, 50 mM HEPES, 200 mM NaCl, pH 7.5, 37° C., 4.3% DMSO.
T1 construct: Purified human α-thrombin; purchased Enzyme Research Laboratories (South Bend, Ind.)
Type: biochemical
Source text: Reagents: All buffer salts were obtained from Sigma Chemical Company (St. Louis, Mo.), and were of the highest purity avalable. The enzyme substrates, N-benzoyl-Phe—Val—Arg-p-nitroanilide (Sigma B7632), N-benzoyl-Ile—Glu—Gly—Arg-p-nitroanilide hydrochloride (Sigma B2291), N-p-Tosyl-Gly—Pro—Lys-p-nitroanilide (Sigma T6140), N-succinyl-Ala—Ala—Pro—Phe-p-nitroanilide (Sigma S7388) and N-CBZ-Val—Gly—Arg-p-nitroanilide (Sigma C7271) were obtained from Sigma.
Human α-thrombin, human factor Xa and human plasmin were obtained from Enzyme Research Laboratories (South Bend, Ind.). Bovine α-chymotrypsin (Sigma C4129), bovine trypsin (Sigma T8642) and human kidney cell urokinase (Sigma U5004) were obtained from Sigma. Human leukocyte elastase was obtained from Elastin Products (Pacific, Mo.).
Ki Determinations: All assays are based on the ability of the test compound to inhibit the enzyme catalyzed hydrolysis of a peptide-p-nitroanililide substrate. […] The final concentrations for each of the substrates is listed below. […] Dilutions are prepared in DMSO yielding 8 final concentrations encompassing a 200 fold concentration range. Enzyme solutions are prepared at the concentrations listed below in assay buffer.
Data corresponding to less than 10% of the total substrate hydrolysis were used in the calculations. The ratio of the velocity (rate of change in absorbance as a function of time) for a sample containing no test compound is divided by the velocity of a sample containing test compound, and is plotted as a function of test compound concentration. The data are fit to a linear regression, and the value of the slope of the line calculated. The inverse of the slope is the experimentally determined K value.
Thrombin: Thrombin activity was assessed as the ability to hydrolyze the substrate N-succinyl-Ala—Ala—Pro—Arg-p-nitroanilide. […] Final DMSO concentration was 4.3%. […] Final reagent concentrations were: [thrombin]=0.5 nM, [substrate N-succinyl-Ala—Ala—Pro—Arg-p-nitroanilide]=32 mM.
`Cc1ccc(CCNc2ncc(C)n(CC(=O)NCCONC(=N)N)c2=O)cc1` [Example 5, 1-{N-[2-(amidinoaminooxy)ethyl]amino}carbonylmethyl-6-methyl-3-(4-methylphenethylamino)-pyrazinone trifluoroacetate] was tested, and the Ki was 20 nM. `Cc1cnc(NCCc2ccccc2)c(=O)n1CC(=O)NCCONC(=N)N` [Example 1, 1-{N-[2-(amidinoaminooxy)ethyl]amino}carbonylmethyl-6-methyl-3-(phenethylamino)-pyrazinone trifluoroacetate] gave a Ki of 46 nM. For `Cc1c(Cl)nc(NCC(c2ccccc2)c2ccccc2)c(=O)n1CC(=O)NCCONC(=N)N` [Example 4, 1-{N-[2-(amidinoaminooxy)ethyl]amino}carbonylmethyl-5-chloro-6-methyl-3-(2,2-diphenylethylamino)-pyrazinone trifluoroacetate], the Ki was 85 nM. For `Cc1c(Cl)nc(NCCc2ccccc2)c(=O)n1CC(=O)NCCONC(=N)N` [Example 2, 1-{N-[2-(amidinoaminooxy)ethyl]amino}carbonylmethyl-5-chloro-6-methyl-3-(phenethylamino)-pyrazinone trifluoroacetate], the Ki was 330 nM.
